Measured values from ChEMBL document CHEMBL3991601, “The target landscape of clinical kinase drugs” (Science, 2017).
The source made the active and inactive calls.

Assays:
[1] = target: Epithelial discoidin domain-containing receptor 1 (Homo sapiens, UniProt Q08345)
[2] = target: Putative heat shock protein HSP 90-beta 2 (Homo sapiens, UniProt Q58FF8)
[3] = target: T1, cGMP-dependent protein kinase 1 (Homo sapiens, UniProt Q13976)
T1 sequence (Q13976 whole entry): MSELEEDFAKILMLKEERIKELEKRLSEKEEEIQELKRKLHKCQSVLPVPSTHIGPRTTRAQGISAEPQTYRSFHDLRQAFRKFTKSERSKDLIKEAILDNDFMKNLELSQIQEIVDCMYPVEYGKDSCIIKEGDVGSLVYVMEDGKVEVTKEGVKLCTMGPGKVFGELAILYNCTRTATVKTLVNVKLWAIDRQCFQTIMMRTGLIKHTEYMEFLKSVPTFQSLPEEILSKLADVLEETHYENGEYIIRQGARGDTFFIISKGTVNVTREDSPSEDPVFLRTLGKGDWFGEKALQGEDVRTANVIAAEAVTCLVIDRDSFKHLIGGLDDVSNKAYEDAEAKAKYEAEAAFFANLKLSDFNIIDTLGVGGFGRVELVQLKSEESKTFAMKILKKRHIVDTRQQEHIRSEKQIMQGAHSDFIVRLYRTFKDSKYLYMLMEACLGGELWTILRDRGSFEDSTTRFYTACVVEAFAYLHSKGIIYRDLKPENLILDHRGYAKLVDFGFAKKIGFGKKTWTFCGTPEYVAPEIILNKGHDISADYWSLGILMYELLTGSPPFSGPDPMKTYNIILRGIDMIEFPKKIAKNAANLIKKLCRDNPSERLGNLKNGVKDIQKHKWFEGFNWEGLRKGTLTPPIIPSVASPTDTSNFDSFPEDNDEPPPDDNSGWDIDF

[4] = target: T2, Glycogen phosphorylase, brain form (Homo sapiens, UniProt P11216)
T2 sequence (P11216 whole entry): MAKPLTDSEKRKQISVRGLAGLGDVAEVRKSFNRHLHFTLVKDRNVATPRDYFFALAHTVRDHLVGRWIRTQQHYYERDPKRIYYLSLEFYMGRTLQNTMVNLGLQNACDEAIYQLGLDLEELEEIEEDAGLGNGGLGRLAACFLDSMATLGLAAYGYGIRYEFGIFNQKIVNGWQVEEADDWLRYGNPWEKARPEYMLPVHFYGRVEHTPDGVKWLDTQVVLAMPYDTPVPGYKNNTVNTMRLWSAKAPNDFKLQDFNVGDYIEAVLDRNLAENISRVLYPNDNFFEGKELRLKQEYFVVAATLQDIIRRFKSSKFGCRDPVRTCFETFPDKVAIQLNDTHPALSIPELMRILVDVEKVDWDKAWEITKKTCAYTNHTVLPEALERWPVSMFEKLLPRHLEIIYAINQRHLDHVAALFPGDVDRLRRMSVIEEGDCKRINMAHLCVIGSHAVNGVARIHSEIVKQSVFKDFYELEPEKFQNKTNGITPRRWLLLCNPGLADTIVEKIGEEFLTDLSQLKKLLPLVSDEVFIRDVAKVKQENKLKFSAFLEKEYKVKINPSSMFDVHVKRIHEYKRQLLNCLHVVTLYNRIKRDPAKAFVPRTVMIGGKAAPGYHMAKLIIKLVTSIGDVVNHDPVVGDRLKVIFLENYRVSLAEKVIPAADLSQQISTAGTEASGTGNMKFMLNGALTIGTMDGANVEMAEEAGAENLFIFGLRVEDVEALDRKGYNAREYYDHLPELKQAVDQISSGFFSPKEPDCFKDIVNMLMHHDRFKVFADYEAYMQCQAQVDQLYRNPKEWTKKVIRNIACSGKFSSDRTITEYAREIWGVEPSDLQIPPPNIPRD

[5] = target: Ribosomal protein S6 kinase beta-1 (Homo sapiens, UniProt P23443)
Chain of Ribosomal protein S6 kinase beta-1 (P23443 whole entry): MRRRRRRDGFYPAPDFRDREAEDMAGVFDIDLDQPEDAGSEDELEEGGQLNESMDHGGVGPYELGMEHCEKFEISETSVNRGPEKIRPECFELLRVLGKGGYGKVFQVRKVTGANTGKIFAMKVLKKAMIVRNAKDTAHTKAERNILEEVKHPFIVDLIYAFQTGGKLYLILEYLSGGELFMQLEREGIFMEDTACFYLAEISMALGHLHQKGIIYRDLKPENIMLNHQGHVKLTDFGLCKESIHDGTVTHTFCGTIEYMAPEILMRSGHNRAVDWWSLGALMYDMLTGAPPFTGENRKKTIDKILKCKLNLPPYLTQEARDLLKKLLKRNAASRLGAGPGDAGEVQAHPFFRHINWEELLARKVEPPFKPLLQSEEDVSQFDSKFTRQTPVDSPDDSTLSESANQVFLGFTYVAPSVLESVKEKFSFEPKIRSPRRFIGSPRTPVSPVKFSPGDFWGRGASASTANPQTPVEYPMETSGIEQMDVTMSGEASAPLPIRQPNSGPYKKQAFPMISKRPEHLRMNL

[6] = target: T3, Serine/threonine-protein kinase ULK1 (Homo sapiens, UniProt O75385)
T3 sequence (O75385 whole entry): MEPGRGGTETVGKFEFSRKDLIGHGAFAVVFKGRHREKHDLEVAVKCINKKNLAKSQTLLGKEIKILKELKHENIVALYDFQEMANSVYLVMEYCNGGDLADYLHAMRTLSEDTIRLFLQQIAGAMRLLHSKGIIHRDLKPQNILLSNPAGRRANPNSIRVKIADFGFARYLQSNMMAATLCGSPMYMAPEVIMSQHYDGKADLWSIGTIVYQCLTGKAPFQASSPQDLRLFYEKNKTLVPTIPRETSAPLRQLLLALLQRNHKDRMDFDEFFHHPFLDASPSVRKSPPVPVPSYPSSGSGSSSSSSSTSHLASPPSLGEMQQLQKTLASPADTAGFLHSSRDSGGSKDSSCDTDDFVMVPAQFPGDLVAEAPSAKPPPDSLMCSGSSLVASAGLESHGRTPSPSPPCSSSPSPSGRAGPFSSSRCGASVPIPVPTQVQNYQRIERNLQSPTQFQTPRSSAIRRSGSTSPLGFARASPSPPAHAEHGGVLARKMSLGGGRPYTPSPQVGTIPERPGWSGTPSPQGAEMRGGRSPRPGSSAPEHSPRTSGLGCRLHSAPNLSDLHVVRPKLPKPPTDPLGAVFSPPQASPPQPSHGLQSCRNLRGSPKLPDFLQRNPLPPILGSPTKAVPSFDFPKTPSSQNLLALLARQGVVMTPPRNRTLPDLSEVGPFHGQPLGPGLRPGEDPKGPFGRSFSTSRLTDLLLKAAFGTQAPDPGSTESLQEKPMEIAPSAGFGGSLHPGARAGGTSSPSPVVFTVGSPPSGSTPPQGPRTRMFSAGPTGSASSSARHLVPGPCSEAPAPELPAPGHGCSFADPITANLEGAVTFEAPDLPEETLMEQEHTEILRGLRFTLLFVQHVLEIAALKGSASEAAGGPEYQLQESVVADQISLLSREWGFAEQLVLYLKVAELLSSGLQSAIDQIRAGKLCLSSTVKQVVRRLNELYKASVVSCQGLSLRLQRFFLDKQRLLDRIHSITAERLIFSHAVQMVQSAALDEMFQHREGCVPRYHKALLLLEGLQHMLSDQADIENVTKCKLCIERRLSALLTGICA
Note: in the data inactive means no Kd found up to 30 µM.

Chain of Putative heat shock protein HSP 90-beta 2 (Q58FF8 whole entry): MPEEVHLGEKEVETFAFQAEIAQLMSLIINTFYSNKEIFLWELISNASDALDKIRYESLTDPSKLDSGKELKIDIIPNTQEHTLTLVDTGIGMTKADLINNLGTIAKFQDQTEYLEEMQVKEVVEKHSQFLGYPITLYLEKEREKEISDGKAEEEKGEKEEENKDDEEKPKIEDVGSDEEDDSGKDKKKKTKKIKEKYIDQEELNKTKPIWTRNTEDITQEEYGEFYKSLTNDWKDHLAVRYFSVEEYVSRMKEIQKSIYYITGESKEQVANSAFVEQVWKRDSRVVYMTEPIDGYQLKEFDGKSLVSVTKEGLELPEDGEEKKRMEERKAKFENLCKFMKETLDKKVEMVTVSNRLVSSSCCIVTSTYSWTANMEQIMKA
Chain of Epithelial discoidin domain-containing receptor 1 (Q08345 whole entry, the tested form may be a part): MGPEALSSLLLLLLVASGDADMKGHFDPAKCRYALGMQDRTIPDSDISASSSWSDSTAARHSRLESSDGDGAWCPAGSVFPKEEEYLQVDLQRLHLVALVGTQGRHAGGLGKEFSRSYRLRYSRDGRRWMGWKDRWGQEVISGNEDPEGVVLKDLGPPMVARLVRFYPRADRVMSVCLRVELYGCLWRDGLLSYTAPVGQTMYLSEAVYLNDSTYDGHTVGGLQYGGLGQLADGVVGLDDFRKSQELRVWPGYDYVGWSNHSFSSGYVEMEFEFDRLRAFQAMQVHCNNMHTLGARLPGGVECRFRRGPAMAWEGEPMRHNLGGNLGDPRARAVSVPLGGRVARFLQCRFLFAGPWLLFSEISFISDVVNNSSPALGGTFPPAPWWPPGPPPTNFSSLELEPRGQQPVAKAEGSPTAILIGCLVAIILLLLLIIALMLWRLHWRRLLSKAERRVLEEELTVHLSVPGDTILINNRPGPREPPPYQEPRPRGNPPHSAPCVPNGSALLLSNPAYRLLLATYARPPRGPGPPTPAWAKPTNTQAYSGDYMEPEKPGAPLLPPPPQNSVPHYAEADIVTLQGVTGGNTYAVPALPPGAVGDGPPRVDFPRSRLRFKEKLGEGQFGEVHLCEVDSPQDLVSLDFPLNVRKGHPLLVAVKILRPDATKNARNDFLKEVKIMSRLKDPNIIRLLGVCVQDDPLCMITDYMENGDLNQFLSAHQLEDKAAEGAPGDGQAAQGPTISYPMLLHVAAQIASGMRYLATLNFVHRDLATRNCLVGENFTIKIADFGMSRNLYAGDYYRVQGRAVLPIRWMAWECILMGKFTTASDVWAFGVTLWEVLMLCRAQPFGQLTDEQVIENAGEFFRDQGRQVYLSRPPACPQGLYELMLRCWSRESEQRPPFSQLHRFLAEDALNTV

| Structure (SMILES) | Kd [1] | Kd [2] | Kd [3] | Kd [4] | Kd [5] | Kd [6] |
| --- | --- | --- | --- | --- | --- | --- |
| Cc1cc(-c2cc(O)ccc2Cl)cc2nnc(Nc3ccc(OCCN4CCCC4)cc3)nc12 | 0.003 µM (active) | > 30 µM (inactive) | > 30 µM (inactive) | > 30 µM (inactive) | > 30 µM (inactive) | > 30 µM (inactive) |
| CCCS(=O)(=O)Nc1ccc(F)c(C(=O)c2c[nH]c3ncc(-c4ccc(Cl)cc4)cc23)c1F [VEMURAFENIB] | > 30 µM (inactive) | > 30 µM (inactive) | > 30 µM (inactive) | > 30 µM (inactive) | > 30 µM (inactive) | > 30 µM (inactive) |
| CC[C@H](Nc1ncnc2[nH]cnc12)c1nc2cccc(F)c2c(=O)n1-c1ccccc1 [IDELALISIB] | > 30 µM (inactive) | > 30 µM (inactive) | > 30 µM (inactive) | > 30 µM (inactive) | > 30 µM (inactive) | > 30 µM (inactive) |
| CNS(=O)(=O)Nc1nccc(Cc2c(C)c3ccc(Oc4ncccn4)cc3oc2=O)c1F [AVUTOMETINIB] | > 30 µM (inactive) | > 30 µM (inactive) | > 30 µM (inactive) | > 30 µM (inactive) | > 30 µM (inactive) | > 30 µM (inactive) |
| CC(=O)Nc1cccc(-n2c(=O)n(C3CC3)c(=O)c3c(Nc4ccc(I)cc4F)n(C)c(=O)c(C)c32)c1 [TRAMETINIB] | > 30 µM (inactive) | > 30 µM (inactive) | > 30 µM (inactive) | > 30 µM (inactive) | > 30 µM (inactive) | > 30 µM (inactive) |
| CO[C@H]1C[C@@H]2CC[C@@H](C)[C@@](O)(O2)C(=O)C(=O)N2CCCC[C@H]2C(=O)O[C@H]([C@H](C)C[C@@H]2CC[C@@H](OCCO)[C@H](OC)C2)CC(=O)[C@H](C)/C=C(\C)[C@@H](O)[C@@H](OC)C(=O)[C@H](C)C[C@H](C)/C=C/C=C/C=C/1C [EVEROLIMUS] | > 30 µM (inactive) | > 30 µM (inactive) | > 30 µM (inactive) | > 30 µM (inactive) | > 30 µM (inactive) | > 30 µM (inactive) |
| CN1N=C(N)c2cn([C@@H]3O[C@H](COP(=O)(O)O)[C@@H](O)[C@H]3O)c3ncnc1c23 [TRICIRIBINE PHOSPHATE] | > 30 µM (inactive) | > 30 µM (inactive) | > 30 µM (inactive) | > 30 µM (inactive) | > 30 µM (inactive) | > 30 µM (inactive) |
| O=c1sn(-c2cccc3ccccc23)c(=O)n1Cc1ccccc1 [TIDEGLUSIB] | > 30 µM (inactive) | > 30 µM (inactive) | > 30 µM (inactive) | > 30 µM (inactive) | > 30 µM (inactive) | > 30 µM (inactive) |
| CCc1cnn2c(NCc3ccc[n+]([O-])c3)cc(N3CCCC[C@H]3CCO)nc12 [DINACICLIB] | > 30 µM (inactive) | > 30 µM (inactive) | > 30 µM (inactive) | > 30 µM (inactive) | > 30 µM (inactive) | > 30 µM (inactive) |
| CC(C)Nc1cc(-c2c[nH]c(C(=O)N[C@H](CO)c3cccc(Cl)c3)c2)c(Cl)cn1 [ULIXERTINIB] | > 30 µM (inactive) | > 30 µM (inactive) | > 30 µM (inactive) | > 30 µM (inactive) | > 30 µM (inactive) | > 30 µM (inactive) |
| CN1CC[C@@H](c2c(O)cc(O)c3c(=O)cc(-c4ccccc4Cl)oc23)[C@@H]1CO | > 30 µM (inactive) | > 30 µM (inactive) | > 30 µM (inactive) | > 30 µM (inactive) | > 30 µM (inactive) | > 30 µM (inactive) |
| C[C@@H]1CN(Cc2ccc(F)cc2)[C@@H](C)CN1C(=O)c1cc2c(C(=O)C(=O)N(C)C)cn(C)c2cc1Cl [TALMAPIMOD] | > 30 µM (inactive) | > 30 µM (inactive) | > 30 µM (inactive) | > 30 µM (inactive) | > 30 µM (inactive) | > 30 µM (inactive) |
| C1=C/COCc2cc(ccc2OCCN2CCCC2)Nc2nccc(n2)-c2cccc(c2)COC/1 [PACRITINIB] | 71.5 µM (active) | > 30 µM (inactive) | 1.52 µM (active) | > 30 µM (inactive) | > 30 µM (inactive) | > 30 µM (inactive) |
| CNC(=O)c1ccc(-c2cnc3ncc(Cc4ccc5ncccc5c4)n3n2)cc1F [CAPMATINIB] | > 30 µM (inactive) | > 30 µM (inactive) | > 30 µM (inactive) | > 30 µM (inactive) | > 30 µM (inactive) | > 30 µM (inactive) |

Further lines, results first:

| Kd [1] | Kd [2] | Kd [3] | Kd [4] | Kd [5] | Kd [6] | Structure (SMILES) |
| --- | --- | --- | --- | --- | --- | --- |
| 5.22 µM (active) | > 30 µM (inactive) | > 30 µM (inactive) | > 30 µM (inactive) | > 30 µM (inactive) | > 30 µM (inactive) | CCN1CCN(Cc2ccc(-c3cc4c(N[C@H](C)c5ccccc5)ncnc4[nH]3)cc2)CC1 [AEE-788] |
| 1.22 µM (active) | > 30 µM (inactive) | > 30 µM (inactive) | > 30 µM (inactive) | > 30 µM (inactive) | > 30 µM (inactive) | O=C(O)[C@]1(Cc2cccc(Nc3nccs3)n2)CC[C@@H](Oc2cccc(Cl)c2F)CC1 [MK-5108] |
| > 30 µM (inactive) | > 30 µM (inactive) | > 30 µM (inactive) | > 30 µM (inactive) | > 30 µM (inactive) | > 30 µM (inactive) | C[C@@H](Nc1cc(F)cc(F)c1)c1cc(C(=O)N(C)C)cc2c(=O)cc(N3CCOCC3)oc12 [AZD-8186] |
| > 30 µM (inactive) | > 30 µM (inactive) | > 30 µM (inactive) | > 30 µM (inactive) | > 30 µM (inactive) | > 30 µM (inactive) | OCCn1cc(-c2cnc3nnn(Cc4ccc5ncccc5c4)c3n2)cn1 [PF-04217903] |
| > 30 µM (inactive) | > 30 µM (inactive) | > 30 µM (inactive) | > 30 µM (inactive) | > 30 µM (inactive) | > 30 µM (inactive) | Cn1cc(-c2ccc3nnc(C(F)(F)c4ccc5ncccc5c4)n3n2)cn1 [JNJ-38877605] |
| 4.04 µM (active) | > 30 µM (inactive) | > 30 µM (inactive) | > 30 µM (inactive) | > 30 µM (inactive) | > 30 µM (inactive) | COc1cc(N2CCC(N3CCN(C)CC3)CC2)ccc1Nc1ncnc(Nc2ccccc2S(=O)(=O)C(C)C)n1 [ASP-3026] |
